Assay results: ChEMBL document CHEMBL5257019, “An Overview of Severe Acute Respiratory Syndrome-Coronavirus (SARS-CoV) 3CL Protease Inhibitors: Peptidomimetics and Small Molecule Chemotherapy” (J Med Chem, 2016)

Legend:
[1] = molecular target: T1, Replicase polyprotein 1ab (Severe acute respiratory syndrome coronavirus 2, UniProt P0DTD1); assay: Inhibition of SARS-CoV-2 3CL protease using Dabcyl-Leu-Ala-Gln-Ala-Val-Arg-Ser-Ser-Ser-Arg-Edans as substrate
Cytochrome P450 2D6 = Cytochrome P450 2D6 (Homo sapiens, UniProt P10635); assay: Inhibition of CYP2D6 (unknown origin); assay type: ADME
Sequence of Cytochrome P450 2D6 (P10635 whole entry): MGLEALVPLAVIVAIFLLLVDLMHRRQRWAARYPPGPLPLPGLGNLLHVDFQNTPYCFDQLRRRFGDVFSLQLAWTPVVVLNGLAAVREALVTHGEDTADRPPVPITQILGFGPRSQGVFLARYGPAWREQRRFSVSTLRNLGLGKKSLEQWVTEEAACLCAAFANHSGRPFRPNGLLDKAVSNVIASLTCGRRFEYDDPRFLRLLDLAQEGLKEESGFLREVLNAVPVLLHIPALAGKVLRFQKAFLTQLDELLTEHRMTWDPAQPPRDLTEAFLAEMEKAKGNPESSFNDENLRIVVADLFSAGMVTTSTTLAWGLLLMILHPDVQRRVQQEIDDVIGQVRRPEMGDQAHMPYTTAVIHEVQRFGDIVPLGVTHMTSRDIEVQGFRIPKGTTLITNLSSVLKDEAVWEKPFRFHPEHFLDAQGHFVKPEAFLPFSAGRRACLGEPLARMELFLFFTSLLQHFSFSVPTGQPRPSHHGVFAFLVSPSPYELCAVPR

[2] = Plasma protein binding in human assessed as unbound fraction; assay type: ADME
[3] = Plasma protein binding in rat assessed as unbound fraction; assay type: ADME
Cytochrome P450 3A4 = Cytochrome P450 3A4 (Homo sapiens, UniProt P08684); assay: Inhibition of CYP3A4 (unknown origin); assay type: ADME
Sequence of Cytochrome P450 3A4 (P08684 whole entry): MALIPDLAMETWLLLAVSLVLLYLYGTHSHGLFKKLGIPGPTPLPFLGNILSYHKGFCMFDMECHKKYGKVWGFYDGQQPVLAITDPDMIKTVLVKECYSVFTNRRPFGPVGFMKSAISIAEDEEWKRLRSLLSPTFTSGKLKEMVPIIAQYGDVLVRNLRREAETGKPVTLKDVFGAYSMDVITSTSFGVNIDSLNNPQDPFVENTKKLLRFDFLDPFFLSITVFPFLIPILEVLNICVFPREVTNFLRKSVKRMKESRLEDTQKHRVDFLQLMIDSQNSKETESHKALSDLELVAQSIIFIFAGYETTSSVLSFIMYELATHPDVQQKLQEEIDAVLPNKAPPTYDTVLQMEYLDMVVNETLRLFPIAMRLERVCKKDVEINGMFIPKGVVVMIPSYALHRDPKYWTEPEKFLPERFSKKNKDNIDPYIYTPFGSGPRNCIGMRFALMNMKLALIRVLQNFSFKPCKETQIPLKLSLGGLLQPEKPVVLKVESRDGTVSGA

Cytochrome P450 2C9 = Cytochrome P450 2C9 (Homo sapiens, UniProt P11712); assay: Inhibition of CYP2C9 (unknown origin); assay type: ADME
Sequence of Cytochrome P450 2C9 (P11712 whole entry): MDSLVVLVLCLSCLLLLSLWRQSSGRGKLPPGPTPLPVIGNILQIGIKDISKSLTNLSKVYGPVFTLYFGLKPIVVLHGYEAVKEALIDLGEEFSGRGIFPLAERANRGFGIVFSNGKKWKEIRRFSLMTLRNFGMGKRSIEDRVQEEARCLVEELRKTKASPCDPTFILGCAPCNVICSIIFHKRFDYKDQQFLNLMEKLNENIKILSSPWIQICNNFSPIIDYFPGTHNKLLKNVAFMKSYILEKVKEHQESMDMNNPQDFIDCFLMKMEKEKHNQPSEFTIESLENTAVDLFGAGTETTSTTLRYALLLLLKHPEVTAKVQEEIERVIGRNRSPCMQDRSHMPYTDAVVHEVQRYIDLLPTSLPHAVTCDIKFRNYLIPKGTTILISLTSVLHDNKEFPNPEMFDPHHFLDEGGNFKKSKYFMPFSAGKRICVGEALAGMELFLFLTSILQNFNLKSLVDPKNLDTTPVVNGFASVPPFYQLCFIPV

Cytochrome P450 1A2 = molecular target: T2, Cytochrome P450 1A2 (Homo sapiens, UniProt P05177); assay: Inhibition of CYP1A2 (unknown origin); assay type: ADME
T2 sequence (P05177 whole entry): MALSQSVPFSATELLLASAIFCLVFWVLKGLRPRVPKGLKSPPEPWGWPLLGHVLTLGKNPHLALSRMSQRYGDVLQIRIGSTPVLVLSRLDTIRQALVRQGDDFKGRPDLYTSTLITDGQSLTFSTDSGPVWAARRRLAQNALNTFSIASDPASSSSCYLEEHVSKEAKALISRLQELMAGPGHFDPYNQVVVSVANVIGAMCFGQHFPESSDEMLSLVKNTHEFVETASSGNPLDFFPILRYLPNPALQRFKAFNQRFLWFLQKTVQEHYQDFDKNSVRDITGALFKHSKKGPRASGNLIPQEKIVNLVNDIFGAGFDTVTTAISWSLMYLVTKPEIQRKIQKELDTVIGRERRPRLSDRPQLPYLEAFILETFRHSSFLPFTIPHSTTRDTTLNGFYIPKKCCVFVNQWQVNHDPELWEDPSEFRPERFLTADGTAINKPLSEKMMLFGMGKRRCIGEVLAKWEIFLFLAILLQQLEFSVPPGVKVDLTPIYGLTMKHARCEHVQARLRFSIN

[4] = molecular target: T1, Replicase polyprotein 1ab; assay: Inhibition of SARS-CoV-2 3CL protease using 2-aminobenzoyl-SVTLQSG-Tyr(NO2)-R as substrate
[5] = molecular target: Replicase polyprotein 1ab (Severe acute respiratory syndrome coronavirus 2) (UniProt P0DTD1); assay: Inhibition of SARS-CoV-2 3CL protease assessed as ratio of Kinact/Ki
[6] = molecular target: T1, Replicase polyprotein 1ab; assay: Inhibition of SARS-CoV-2 3CL protease using Dabcyl-KTSAVLQSGFRKME-Edans as substrate assessed as inhibition constant by flurogenic assay
[7] = molecular target: Replicase polyprotein 1ab (Severe acute respiratory syndrome coronavirus 2) (UniProt P0DTD1); assay: Inhibition of SARS-CoV-2 3CL protease at 100 uM relative to control
[8] = molecular target: T1, Replicase polyprotein 1ab; assay: Inhibition of SARS-CoV-2 3CL protease by FRET assay
[9] = molecular target: T1, Replicase polyprotein 1ab; assay: Inhibition of N terminal his tagged SARS-CoV-2 3CL protease by FRET assay
[10] = Inhibition of SARS-CoV 3CL protease using 2-aminobenzoyl-SVTLQSG-Tyr(NO2)-R as substrate; set-up: species or system Severe acute respiratory syndrome-related coronavirus

Question: With O=C(O)c1ccc(/N=C/c2c(O)ccc3c2C2CCCCC2O3)cc1 (stereo not drawn) as the compound, how does the EC50 [1] read?
Answer: The EC50 was 23 µM.

Question: Which IC50 (Cytochrome P450 2D6) does the source give for Cn1ccc(CN(C(=O)Cn2nnc3ccccc32)c2ccc(NC(=O)C3CC3)cc2)c1 here?
Answer: The IC50 was 8.4 µM.

Question: And the fraction unbound [2]?
Answer: Its fraction unbound is 0.048.

Question: And the fraction unbound [3]?
Answer: The fraction unbound was 0.106.

Question: And the IC50 (Cytochrome P450 3A4)?
Answer: The IC50 was 4.6 µM.

Question: And the IC50 (Cytochrome P450 2C9)?
Answer: Its IC50 is 7.2 µM.

Question: And the IC50 (Cytochrome P450 1A2)?
Answer: The IC50 was 7.7 µM.

Question: With Cc1cc2cc(CN(CCc3ccccc3C)C(=O)NCc3ccccc3)c(=O)[nH]c2cc1C as the compound, how does the IC50 [4] read?
Answer: Its IC50 is 17.2 µM.

Question: For CCOC(=O)[C@@H]1OC1C(=O)N(CCC(N)=O)NC(=O)[C@H](Cc1ccccc1)NC(=O)[C@H](CC(C)C)NC(=O)OCc1ccccc1 (stereo partly drawn), which Ratio [5] is on record?
Answer: The Ratio was 1900 M/s.

Question: Which Ki [6] does the source give for O=C(On1nnc2ccccc21)c1ccc2[nH]ccc2c1 here?
Answer: Its Ki is 0.0075 µM.

Question: With CC(C)(C)NC(=O)C(c1cccnc1)N(C(=O)c1ccco1)c1ccc(C(C)(C)C)cc1 (stereo not drawn) as the compound, how does the IC50 (Cytochrome P450 2D6) read?
Answer: The IC50 was over 30 µM.

Question: And the fraction unbound [2]?
Answer: Its fraction unbound is 0.033.

Question: And the fraction unbound [3]?
Answer: Its fraction unbound is 0.026.

Question: What about the IC50 (Cytochrome P450 2C9) of the same compound?
Answer: The IC50 was 9.1 µM.

Question: And the IC50 (Cytochrome P450 1A2)?
Answer: Its IC50 is over 30 µM.

Question: With CC(=O)N[C@H](C(=O)N[C@H](C(=O)N[C@@H](CC(C)C)C(=O)N[C@@H](C[C@@H]1CCNC1=O)C(=O)c1cccs1)[C@@H](C)O)C(C)C as the compound, how does the inhibition [7] read?
Answer: The inhibition was 23%.

Question: Which IC50 [8] does the source give for O=c1c(OC[C@H]2O[C@@H](O)[C@H](O)[C@@H](O)[C@H]2O)c(-c2ccc(O)c(O)c2)oc2cc(O)cc(O)c12 here?
Answer: The IC50 was 42.8 µM.

Question: With O=C(Oc1cncc(Cl)c1)c1cccs1 as the compound, how does the IC50 [9] read?
Answer: The IC50 was 0.5 µM.

Question: For O=C(CSc1nc(C2CCCCC2)nc2ccccc12)NCc1ccco1, which IC50 [4] is on record?
Answer: Its IC50 is 18.2 µM.

Question: For CC(=O)N[C@H](C(=O)N[C@H](C(=O)N[C@@H](CC(C)C)C(=O)N[C@@H](Cc1ccccc1)C(=O)Cn1[nH]c(=O)c2ccccc2c1=O)[C@@H](C)OCc1ccccc1)C(C)C, which inhibition [7] is on record?
Answer: The inhibition was 72%.

Question: With COC(=O)c1cc2c(O)cc(C(F)(F)F)cc2o1 as the compound, how does the IC50 [4] read?
Answer: Its IC50 is 4.3 µM.

Question: With OCC1C(COCc2ccccc2)CC1n1cnc2c(Cl)ncnc21 (stereo not drawn) as the compound, how does the IC50 [10] read?
Answer: The IC50 was 14.5 µM.

Question: With O=C(Oc1cncc(Cl)c1)c1cc2ccccc2[nH]1 as the compound, how does the IC50 [9] read?
Answer: The IC50 was 0.065 µM.
